The record followed here is patent publication US20140314847A1, “CONTROLLED RELEASE PHARMACEUTICAL COMPOSITIONS WITH IMPROVED BIOAVAILABILILTY” (priority 2004, published 2014).

The series in a line: In vitro dissolution study of acyclovir solubilized using various solubilizers. In kind it is physicochemical. On the procedure:
A solubilizing agent was melted in a container and a drug was added and mixed intimately and cooled to room temperature. The mass was sifted through an appropriate sieve to get a uniform blend. A blend of the drug was prepared using polyethylene glycol 6000, Lutrol F127 and Gelucire (50/13). Solid dispersion of the drug with various solubilizing agents like polyethylene glycol 6000, Lutrol F127 and Gelucire 50/13 were studied for their solubility in 900 ml distilled water. […] Also with Lutrol in ratio (1:0.5 to 1:2) a three-fold increase in instantaneous solubility was observed. These samples were taken for dissolution study and the result obtained are provided in Table 3 hereunder and graphically depicted in Figure-I: […]

Turning to `Nc1nc2c(ncn2COCCO)c(=O)[nH]1` [Acyclovir as is, Acyclovir], the “% drug dissolved” value stood at 0% (0 min); 16.03% (5 min); 19.58% (10 min); 24.09% (15 min); 29.34% (20 min); 33.89% (30 min). The “% drug dissolved” value by setting is: (45 min) 47.11%; (60 min) 53.78%; (90 min) 68.87%; (120 min) 75.40%.
